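In this assay, cells in 96-well plates receive the compound at five concentrations for 48 hours. Endpoints are linearly interpolated between the surrounding concentrations. GI50: concentration for 50% inhibition of growth.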 Activity calls are given as the source filed them. Rule as the data show it: active = GI50 up to about 1.1 µM and inactive = higher.
Legend:
Assay in all cases: NCI-60 cell line screen, 48 h
[1] = system: SNB-19
[2] = system: A549
[3] = system: CAKI-1
[4] = system: HCC 2998
[5] = system: SK-MEL-28
[6] = system: SF-539
[7] = system: COLO 205
[8] = system: SN12C
[9] = system: KM-20L2
[10] = system: NCI-H226
[11] = system: HOP-18
[12] = system: RXF 393
[13] = system: UO-31
[14] = system: HT-29
[15] = system: HOP-92
[16] = system: SK-MEL-5
[17] = system: SK-OV-3
[18] = system: M19-MEL
[19] = system: LOX IMVI
[20] = system: NCI-H460
[21] = system: IGROV-1
[22] = system: UACC-62
[23] = system: Malme-3M
[24] = system: M14
[25] = system: K562
[26] = system: ACHN
[27] = system: DMS-114
[28] = system: SK-MEL-2
[29] = system: U-251
[30] = system: HL-60
[31] = system: NCI-H522
[32] = system: SNB-75
[33] = system: LXFL 529
[34] = system: SNB-78
[35] = system: A498
[36] = system: NCI-H23
[37] = system: 786-0
[38] = system: SF-268
[39] = system: CCRF-CEM
[40] = system: EKVX
[41] = system: XF498
[42] = system: OVCAR-8
[43] = system: RPMI-8226
[44] = system: SW-620
[45] = system: OVCAR-5
[46] = system: DMS-273
[47] = system: SF-295
[48] = system: HCT-116
[49] = system: HCT-15
[50] = system: HOP-62
[51] = system: TK-10
[52] = system: UACC-257
[53] = system: KM12
[54] = system: MOLT-4
[55] = system: OVCAR-3
[56] = system: OVCAR-4
[57] = system: DLD-1

Which GI50 [1] does the source give for `Cc1ccc(Sc2ccc(C)cc2[N+](=O)[O-])c([N+](=O)[O-])c1` here?
The GI50 was > 100 µM (inactive).

And the GI50 [2]?
The GI50 was > 100 µM (inactive).

And the GI50 [3]?
The GI50 was > 10 µM (inactive).

What about the GI50 [4] of the same compound?
The GI50 was > 100 µM (inactive).

And the GI50 [5]?
Its GI50 is > 100 µM (inactive).

What about the GI50 [6] of the same compound?
The GI50 was > 100 µM (inactive).

And the GI50 [7]?
The GI50 was > 100 µM (inactive).

What about the GI50 [8] of the same compound?
Its GI50 is > 100 µM (inactive).

What about the GI50 [9] of the same compound?
Its GI50 is > 100 µM (inactive).

What about the GI50 [10] of the same compound?
The GI50 was > 100 µM (inactive).

And the GI50 [11]?
Its GI50 is > 100 µM (inactive).

And the GI50 [12]?
Its GI50 is > 100 µM (inactive).

What about the GI50 [13] of the same compound?
The GI50 was > 100 µM (inactive).

What about the GI50 [14] of the same compound?
The GI50 was > 10 µM (inactive).

What about the GI50 [15] of the same compound?
The GI50 was > 100 µM (inactive).

What about the GI50 [16] of the same compound?
The GI50 was > 100 µM (inactive).

And the GI50 [17]?
The GI50 was > 100 µM (inactive).

And the GI50 [18]?
The GI50 was > 100 µM (inactive).

And the GI50 [19]?
The GI50 was > 100 µM (inactive).

And the GI50 [20]?
The GI50 was > 100 µM (inactive).

And the GI50 [21]?
Its GI50 is > 100 µM (inactive).

What about the GI50 [22] of the same compound?
The GI50 was > 100 µM (inactive).

What about the GI50 [23] of the same compound?
The GI50 was > 100 µM (inactive).

What about the GI50 [24] of the same compound?
Its GI50 is > 100 µM (inactive).

What about the GI50 [25] of the same compound?
Its GI50 is > 100 µM (inactive).

And the GI50 [26]?
The GI50 was > 100 µM (inactive).

And the GI50 [27]?
The GI50 was > 100 µM (inactive).

What about the GI50 [28] of the same compound?
Its GI50 is > 100 µM (inactive).

And the GI50 [29]?
The GI50 was > 100 µM (inactive).

What about the GI50 [30] of the same compound?
The GI50 was > 100 µM (inactive).

And the GI50 [31]?
The GI50 was > 100 µM (inactive).

What about the GI50 [32] of the same compound?
Its GI50 is 46.5 µM (inactive).

What about the GI50 [33] of the same compound?
The GI50 was > 100 µM (inactive).

And the GI50 [34]?
Its GI50 is > 100 µM (inactive).

What about the GI50 [35] of the same compound?
The GI50 was > 100 µM (inactive).

What about the GI50 [36] of the same compound?
The GI50 was > 100 µM (inactive).

And the GI50 [37]?
Its GI50 is > 100 µM (inactive).

What about the GI50 [38] of the same compound?
The GI50 was > 100 µM (inactive).

What about the GI50 [39] of the same compound?
The GI50 was > 100 µM (inactive).

What about the GI50 [40] of the same compound?
The GI50 was > 100 µM (inactive).

What about the GI50 [41] of the same compound?
The GI50 was > 100 µM (inactive).

What about the GI50 [42] of the same compound?
The GI50 was > 100 µM (inactive).

What about the GI50 [43] of the same compound?
The GI50 was > 100 µM (inactive).

And the GI50 [44]?
The GI50 was > 100 µM (inactive).

What about the GI50 [45] of the same compound?
The GI50 was > 100 µM (inactive).

What about the GI50 [46] of the same compound?
The GI50 was > 100 µM (inactive).

What about the GI50 [47] of the same compound?
Its GI50 is > 100 µM (inactive).

What about the GI50 [48] of the same compound?
The GI50 was > 100 µM (inactive).

And the GI50 [49]?
Its GI50 is > 100 µM.

What about the GI50 [50] of the same compound?
The GI50 was > 100 µM (inactive).

And the GI50 [51]?
Its GI50 is > 100 µM (inactive).

What about the GI50 [52] of the same compound?
Its GI50 is > 10 µM (inactive).

And the GI50 [53]?
Its GI50 is > 100 µM (inactive).

What about the GI50 [54] of the same compound?
The GI50 was > 100 µM (inactive).

What about the GI50 [55] of the same compound?
Its GI50 is > 100 µM (inactive).

And the GI50 [56]?
Its GI50 is > 100 µM (inactive).

Which results are given for `CC(=O)CCC#Cc1ccccc1C(=O)C(C)=[N+]=[N-]`?
GI50 [1]: > 100 µM (inactive); GI50 [2]: 41 µM (inactive); GI50 [4]: > 100 µM (inactive); GI50 [5]: 18.2 µM (inactive); GI50 [6]: 97.3 µM (inactive); GI50 [7]: 14.9 µM (inactive); GI50 [8]: 49.1 µM (inactive); GI50 [9]: 79.1 µM (inactive); GI50 [10]: 48.5 µM (inactive); GI50 [11]: 97.1 µM (inactive); GI50 [12]: 23.6 µM (inactive); GI50 [13]: 44.4 µM (inactive); GI50 [14]: 44.8 µM (inactive); GI50 [15]: 38 µM (inactive); GI50 [16]: 15.4 µM (inactive); GI50 [17]: 57.7 µM (inactive); GI50 [19]: 32.2 µM (inactive); GI50 [20]: 37.4 µM (inactive); GI50 [21]: 30 µM (inactive); GI50 [22]: 16.1 µM (inactive); GI50 [23]: 19.6 µM (inactive); GI50 [24]: 20.3 µM (inactive); GI50 [25]: 20.8 µM (inactive); GI50 [26]: 39.5 µM (inactive); GI50 [27]: 12.9 µM (inactive); GI50 [28]: 72.3 µM (inactive); GI50 [29]: 36.8 µM (inactive); GI50 [30]: 13.2 µM (inactive); GI50 [32]: 15.6 µM (inactive); GI50 [35]: 53.6 µM (inactive); GI50 [36]: 36.1 µM (inactive); GI50 [38]: 18.1 µM (inactive); GI50 [39]: 6.08 µM (inactive); GI50 [40]: 81.8 µM (inactive); GI50 [41]: 20.5 µM (inactive); GI50 [42]: 42.8 µM (inactive); GI50 [43]: 17.4 µM (inactive); GI50 [44]: 52.7 µM (inactive); GI50 [57]: 79.8 µM (inactive); GI50 [45]: > 100 µM (inactive); GI50 [46]: 26.4 µM (inactive); GI50 [47]: 45 µM (inactive); GI50 [48]: 13 µM (inactive); GI50 [49]: 48.8 µM; GI50 [50]: 71.3 µM (inactive); GI50 [51]: > 100 µM (inactive); GI50 [52]: 53 µM (inactive); GI50 [53]: 45 µM (inactive); GI50 [54]: 19.8 µM (inactive); GI50 [55]: 28.5 µM (inactive); GI50 [56]: 50.9 µM (inactive)

Which results are given for `CC12CP(=O)(c3ccccc3)CC1C2(Cl)Cl` (configuration not stated)?
GI50 [1]: > 100 µM (inactive); GI50 [2]: > 100 µM (inactive); GI50 [4]: > 100 µM (inactive); GI50 [5]: > 100 µM (inactive); GI50 [6]: > 100 µM (inactive); GI50 [7]: > 100 µM (inactive); GI50 [8]: > 100 µM (inactive); GI50 [9]: > 100 µM (inactive); GI50 [11]: > 100 µM (inactive); GI50 [12]: > 100 µM (inactive); GI50 [14]: > 100 µM (inactive); GI50 [16]: > 100 µM (inactive); GI50 [17]: > 100 µM (inactive); GI50 [18]: > 100 µM (inactive); GI50 [19]: > 100 µM (inactive); GI50 [20]: > 100 µM (inactive); GI50 [21]: > 100 µM (inactive); GI50 [22]: > 100 µM (inactive); GI50 [24]: > 100 µM (inactive); GI50 [25]: > 100 µM (inactive); GI50 [27]: > 100 µM (inactive); GI50 [29]: > 100 µM (inactive); GI50 [30]: > 10 µM (inactive); GI50 [31]: > 100 µM (inactive); GI50 [32]: 28.1 µM (inactive); GI50 [33]: > 100 µM (inactive); GI50 [34]: > 100 µM (inactive); GI50 [36]: > 100 µM (inactive); GI50 [37]: > 100 µM (inactive); GI50 [39]: > 100 µM (inactive); GI50 [40]: > 100 µM (inactive); GI50 [41]: > 100 µM (inactive); GI50 [42]: > 100 µM (inactive); GI50 [43]: > 100 µM (inactive); GI50 [44]: > 100 µM (inactive); GI50 [57]: > 100 µM (inactive); GI50 [46]: > 100 µM (inactive); GI50 [47]: > 100 µM (inactive); GI50 [48]: > 100 µM (inactive); GI50 [50]: > 100 µM (inactive); GI50 [51]: > 100 µM (inactive); GI50 [53]: > 100 µM (inactive); GI50 [54]: > 100 µM (inactive); GI50 [55]: > 100 µM (inactive); GI50 [56]: > 100 µM (inactive)

Source: ChEMBL document CHEMBL1201862, “PubChem BioAssay data set” (2004)
